Data from BigSolDB 2.1.

Cc1cccc(N(C)C(=S)Oc2ccc3ccccc3c2)c1
solubility (mole fraction)
Conditions	in acetic acid	in ethanol	in ethylene glycol	in isobutanol	in isopropanol	in methanol	in n-butanol	in n-octanol	in n-propanol	in propylene glycol
283.15 K	0.00186	0.000558	5.01e-05	0.000544	0.000365	0.000402	0.00082	0.00145	0.000679	0.000155
288.15 K	0.00249	0.000765	5.88e-05	0.000734	0.00054	0.0005	0.00115	0.00189	0.00104	0.000214
293.15 K	0.00307	0.000957	7.5e-05	0.000933	0.000731	0.000691	0.00154	0.00251	0.00136	0.000264
298.15 K	0.00359	0.00125	8.76e-05	0.00137	0.000965	0.000843	0.00207	0.00311	0.00171	0.000335
303.15 K	0.0045	0.00161	0.000107	0.00174	0.00125	0.00102	0.00264	0.004	0.00218	0.000413
308.15 K	0.00574	0.00196	0.000129	0.0025	0.00168	0.00119	0.00345	0.00526	0.00286	0.000542
313.15 K	0.00779	0.00241	0.000156	0.00316	0.00225	0.00149	0.00448	0.00708	0.00351	0.00068
318.15 K	0.00993	0.00287	0.000201	0.00409	0.00273	0.00181	0.00568	0.00896	0.00451	0.000785
323.15 K	0.0127	0.00365	0.000258	0.00544	0.00357	0.00224	0.0076	0.0115	0.00606	0.000953
328.15 K	0.0156	0.00448	0.00031	0.00705	0.00437	0.00267	0.0097	0.0148	0.00772	0.00125
